Read-outs that look alike come from different tables or passages of the source.
Columns and labels:
Raf-1(truncated) = test: Raf-1 inhibitor screening by chemoluminescence method; type: biochemical; conditions: Final concentration 1 x 1.0*10^−5 mol/ml
From the text: 1. Inhibitory activity of the compound of the present invention on raf kinase
Raf-1 inhibitor screening by chemoluminescence method
Westernblot electrophoresis apparatus Rotaryshaker
Raf-1(truncated), Magnesium/ATP Cocktail, MEK1 unactive

[1] = tested on: human lung cancer cell strain A549; test: MTT assay, inhibition of growth of human lung cancer cell strain A549; type: cell-based
Method: 4. Using 3-(4,5-dimethylthiazol-2-yl)-2,5-diphenyl tetrazolium bromide assay (MTT) to detect the inhibition effects on the growth of human lung cancer cell strain A549
[Test materials] MTT working solution, F12 medium containing 10% FBS, continuous injectors
(§1) [Tested compound] Compounds 1-38
(§2) [Positive control medicine] Sorafenib, compounds A′, B′, C′ with no substituent or only amino formyl in A ring
The inhibition rate is calculated as follows:
(§3) Relative OD value of conrol well=OD value of control well−OD value of blank well
(§4) Relative OD value of drug well=OD value of drug well−OD value of blank well

[2] = tested on: human high-metastic lung cancer cell 95D; test: Inhibition of human high-metastic lung cancer cell 95D migration (Boyden Chamber Transwell); type: cell-based; conditions: Final concentration 1 x 1.0*10^(−5) mol/L
Method: 5 Inhibition effects of compounds on human high-metastic lung cancer cell 95D migration
[Test materials] Boyden Chamber Transwell chamber (with pore size of 8 μm), human high-metastic lung cancer cell 95D cell strain, 1640 medium containing 10% FBS, 1640 medium containing no serum
as §1, §2
(§5) The inhibition rate is calculated as follows: […]

lung cancer cell A549 = test: Effects on the adhesive ability of lung cancer cell A549; type: cell-based, human; conditions: Final concentration 1 x 1.0*10^(−5) mol/L
Method: 6. Effects of tested compounds on the adhesive ability of lung cancer cell A549
[Test materials] gelatin, CCK8, poly-lysine (PLL), A549 cell stains, 1640 medium containing 10% FBS
(§6) [Tested compound] Compounds 1-38 to be tested
as §2, §5
Dosing dosing cells without cell group (gelatin adhesive OD/PLL adhesion OD)−Dosing cell group (gelatin adhesive OD/PLL adhesion OD value)
Dosing dosing cells without cell group (gelatin adhesive OD/PLL adhesion OD value)

[3] = tested on: human umbilical vein endothelial cell HUVEC; test: Growth of human umbilical vein endothelial cell HUVEC by CCK8 method; type: cell-based; conditions: Final concentration 1 x 1.0*10^(−5) mol/L
From the text: 7. Effects of tested compounds on the growth of human umbilical vein endothelial cell HUVEC cell by CCK8 method
[Test materials] CCK8, human umbilical vein endothelial cell HUVEC cell, 1640 medium containing 10% FBS
as §6, §2, §3, §4

[4] = tested on: human umbilical vein endothelial cell HUVEC; test: Lumen formation ability of HUVEC (Matrigel method); type: cell-based; conditions: Final concentration 1 x 1.0*10^(−5) mol/L
From the text: 8. Inhibition effects of compounds on the lumen formation ability of human umbilical vein endothelial cell HUVEC
[Experimental principles] The human umbilical vein endothelial cells have ability of spontaneously forming blood lumen on Matrigel, which can be used to simulate the process of angiogenesis in vivo. We used Matrigel method to investigate the effects of the compound on the lumen formation ability of human umbilical vein endothelial cell HUVEC.
[Test materials] HUVEC (taking generation 3 to 5 cells for experiments after obtained from primary separation and cultured at 37 under the conditions of 5% CO2), Matrigel, cell culture medium M199.
as §1, §2, §5

[5] = tested on: human lung cancer A549 transplantation tumor; type: in vivo; conditions: BALB/cA nude mice; 60 mg/kg, 6 times every week for 3 weeks; Sorafenib oral 60 mg/kg
Method: 9. Tumor inhibition rate of tested compounds on human lung cancer A549 cell transplantation model in nude mice
(§7) [Test animals] female BALB/cA nude mice, 35-40 days old, with weight of 18-22g. There were 12 mice in the negative conrol group and 6 mice in the treatment group.
(§8) The dosage of the compound was 60 mg/kg, 6 times every week for 3 weeks. […] Equal amount of normal saline was administrated in the negative control group. Observe for one week after administration.

[6] = tested on: human liver cancer cell bel-7402 transplantation tumor; type: in vivo; conditions: BALB/cA nude mice; 60 mg/kg, 6 times every week for 3 weeks; Sorafenib oral 60 mg/kg
Method: 10. Tumor inhibition rate of tested compounds on human liver cancer cell bel-7402 transplantation tumor model in nude mice
as §7, §8

[7] = tested on: renal carcinoma cell line GCR-1 transplanted tumor; type: in vivo, BALB/cA nude mice; conditions: BALB/cA nude mice; 60 mg/kg, 6 times every week for 3 weeks; Sorafenib oral 60 mg/kg
Method: 11. Tumor inhibition rate of medicines on renal carcinoma cell line GCR-1 transplanted tumor model in nude mice
as §7
[Test method] […] The dosage of the medicine was 60 mg/kg, 6 times every week for 3 weeks. […] Equal amount of normal saline was administrated in the negative control group. Observe for one week after administration.

mice S180 sarcoma = test: Experimental therapeutic action on S180 sarcoma mice; conditions: mice S180 sarcoma, 60 mg/kg orally for 9 days
Method: Experimental therapeutic action of the compound in the present invention on S180 sarcoma mice
18-25 g female ICR mice and well grown 7-11 day old mice sarcoma S180 tumor seeds were selected, and the seeds were inoculated into the subcutaneous at the right axillary. After inoculated 24 hours, these mice were randomly divided into cages and orally administrated 60 mg/kg for 9 days. On 10 day, the animals were killed and weighed, and the tumor weights were weighed to calculate average tumor weight in each group, followed by calculating the tumor inhibition rate according to the following formula and T test.

[8] = tested on: Human colon cancer HT-29 transplantable tumor; test: Human colon cancer HT-29 transplantable tumor in nude mice; conditions: HT-29 in nude mice, 60 mg/kg ig 9 times
Method: Experimental therapeutic action of the compound in the present invention on Human colon cancer HT-29 transplantable tumor in nude mice.
Take eugenic tumor tissues and cut into about 1.5 mm^3, and then incoculate subcutaneously at the right armpit of nude mice under the sterile conditions. The diameter of the transplantable tumor in nude mice was determined with a vernier caliper, and the animals were divided into groups after the tumors were grown to 100-300 mm^3. Using the method of measuring the tumor diameter, dynamically observe the antitumor effects of tested materials. The diameter of the tumor was determined three times every week and the mouse weight was weighed at the same time. […] The solvent was intragastrically administrated as the control for continuous 9 times. Equal amount of control was administrated in the negative control group.
Tumor volume (TV) is calculated as: TV=½×a×b^2, wherein a and b respectively represent length and width.
Relative tumor volume (RTV) is calculated as: RTV=TVt/TV0, wherein TV0 is the tumor volume when administrated according to different cages and TVt is the tumor volume measured each time.
Relative tumor reproduction rate T/C (%) is calculated as follows:
TRTV: RTV in the treatment group; CRTV: RTV in the negative control group.
The test results used relative tumor reproduction rate T/C (%) as evaluating indicator of anti-tumor activity.

[9] = Final concentration 1 x 1.0*10^(−5) mol/L

Row | SMILES | Inhibition rate % on raf kinase (Raf-1(truncated)) [%] | Inhibition rate, growth of human lung cancer cell A549 [1, 9] [%] | Inhibition rate, 95D cell strain migration [2] [%] | Inhibition rate, adhesion ability of human lung cancer cell A549 (lung cancer cell A549) [%] | Inhibition rate, growth of HUVEC cell [3] [%] | Inhibition rate, lumen formation ability of HUVEC [4] [%] | Relative tumor reproduction rate T/C (%) on human lung cancer A549 transplantation tumor in nude mice [5] [%] | Relative tumor reproduction rate T/C (%) on human liver cancer cell bel-7402 transplantation tumor model in nude mice [6] [%] | Relative tumor reproduction rate T/C (%) on human renal carcinoma GCR-1 cell transplanted tumor model in nude mice [7] [%] | Tumor growth inhibition rate (%) (mice S180 sarcoma) | Relative tumor reproduction rate T/C (%) [8] [%] | Inhibition rate, growth of human lung cancer cell A549 [1] [%]
1 | CNC(=O)c1cc(Oc2ccc(NC(=O)Nc3ccc(Br)c(C(F)(F)F)c3)cc2)c(C)[nH]1 [Compound 15, N-(4-bromo-3-(trifluoromethyl)phenyl)-N′-(4-(2-(N-methylaminoformoxyl)-4-(5-methyl-pyrryl)oxy)phenyl)urea] | 35.5 | 72.17 | 63.68 | 68.63 | 38.17 | 68.64 | 38.7 | 33.6 | 22.5 | 56.7 | 85.2 | 
2 | CCCNC(=O)c1cc(Oc2ccc(NC(=O)Nc3ccc(Cl)c(OC)c3)c(C(F)(F)F)c2)c2ccc(C(F)(F)F)cc2n1 [Compound 38] | 88.1 |  | 80.53 | 75.53 | 14.56 | 65.55 | 36.5 | 31.5 | 20.5 | 59.2 | 41.2 | 74.56
3 | Cc1cc(Oc2ccc(NC(=O)Nc3ccc(Cl)c(C(F)(F)F)c3)cc2)c[nH]1 [Compound 28, N-(4-chloro-3-(trifluoromethyl)phenyl)-N′-(4-(4-(2-methyl-pyrryl)oxy)phenyl)urea] | 33.5 |  | 70.53 | 90.53 | 20.55 | 89.52 | 13.6 | 17.5 | 11.4 | 11.5 | 39.1 | 88.52
4 | Nc1ccc2c(Oc3ccc(NC(=O)Nc4ccc(F)c(C(F)(F)F)c4)cc3)cncc2c1 [Compound 26, N-(4-fluoro-3-(trifluoromethyl)phenyl)-N′-(4-(4-(7-amino-isoquinolyl)oxy)phenyl)urea] | 15.3 |  | 60.52 | 68.57 | 32.50 | 70.53 | 33.1 | 36.1 | 24.2 | 7.6 | 41.1 | 55.50
5 | CNC(=O)c1ncc(Oc2ccc(NC(=O)Nc3ccc(Br)c(C(F)(F)F)c3)cc2)c(OC)n1 [Compound 9, N-(4-bromo-3-(trifluoromethyl)phenyl)-N′-(4-(2-(N-methylaminoformoxyl)-5-(4-methoxypyrimidinyl)oxy)phenyl)urea] | 99.2 | 61.54 | 91.42 | 85.32 | 11.54 | 91.45 | 38.7 | 36.8 | 28.3 | 55.9 | 35.2 | 
6 | CCCNC(=O)c1cc(Oc2ccc(NC(=O)Nc3ccc(Cl)c(OC)c3)c(F)c2)c2ccc(C(F)(F)F)cc2n1 [Compound 37] | 81.5 |  | 79.25 | 71.74 | 19.65 | 71.72 | 38.3 | 36.3 | 32.3 | 24.1 | 39.5 | 71.65
7 | COc1ncncc1Oc1ccc(NC(=O)Nc2ccc(Cl)c(C(F)(F)F)c2)cc1 [Compound 22, N-(4-chloro-3-(trifluoromethyl)phenyl)-N′-(4-(5-(4-methoxypyrimidinyl)oxy)phenyl)urea] | 88.1 |  | 88.77 | 72.44 | 12.49 | 86.72 | 15.3 | 15.3 | 8.1 | 52.1 | 41.2 | 82.49
